“Also recorded” adds a separate entry of the source.

We go through seven molecules from US20030152646A1, “Method of treating conditions caused by activated microglia” (priority 2001, published 2003).

In one series the test system is primary cortical neurons. In words: Neuron survival of primary cortical neurons treated with SIN-1. It is filed as cell-based, rat. As to conditions: 50 μM SIN-1, 2 μM FeTMPyP, 48 hr. The protocol:
To validate the specificity and effectiveness of the peroxynitrite decomposition catalyst FeTMPyP, this catalyst was further tested with neuron cultures treated with SIN 1, an exogenous NO and superoxide donor that, consequently, generates peroxynitrite under physiological conditions [Hogg, 1992]. Primary cortical neurons were treated with 50 μM SIN-1 in the presence or absence of 2 μM FeTMPyP for 48 hr.
Neuron cultures were derived from […] (embryonic day 17) Fishes 344 rat cerebral cortices detailed previously (Banker and Goslin, 1988; Rozovsky et al., 1994) and plated at 5×10^4 viable cells/well is poly-D-lysine (Sigma) coated 24-well plates (Costar). […]
Following treatment, culture inserts containing microglia were removed and neurons were stained with 10 jig/ml fluorescein diacetate (FDA, Sigma) for 10 min. […] Since neuron deaths occur primarily in the region directly underneath the microglia-containing culture inserts (see FIG. 6D), for quantification, eight images at the center of each well were taken with a Nikon TE300 fluorescent microscope and analyzed with the IP Lab imaging software (version 3.54, Scanalytics, Fairfax, Va.). Viable neurons were quantified by the area covered by green fluorescence, after the establishment of a linear relationship between the numbers of stained cells and the green fluorescent area. […]

Series [1] relates to nitric oxide (NO) production. Put plainly: Nitrite measurement (Griess reaction) in LPS-treated microglia-neuron co-cultures. It counts as cell-based, rat. As to conditions: for effect on nitrite accumulation / NO production: 100 ng/ml LPS, 48 hours, same concentrations as for neuron survival.
The subject of series [2] is nitric oxide (NO) production. In words: Nitrite measurement in microglia-neuron co-cultures treated with Aβ1-42 and interferon γ. It is filed as cell-based, rat. As to conditions: 5 μM Aβ1-42 + 10 ng/ml interferon γ, 48 hour; FeTMPyP 2 μM. How it is done: Nitric oxide (NO) production was determined indirectly through the assay of nitrite (NO2), a stable metabolite of NO, based on the Griess reaction (Huygen, 1970; Green et al., 1982; Ding et al., 1988). Briefly, a 50 μl aliquot of conditioned media was mixed with an equal volume of Griess reagent (0.1% N-(1-naphthyl)ethylenediamine dihydrochloride, 1% sufanilamide, and 2.5% phosphoric acid, all from Sigma), and incubated for 10 min at 22° C. The absorbance was read at 550 nm on a microtiter plate reader (Spectra MAX 250, Molecular Devices, Sunnyvale, Calif.). Nitrite concentrations were calculated from a standard curve of NaNO2 (Sigma) ranging from 0 to 100 μM. Background NO2 was subtracted from the experimental values.

Series [3] deals with microglia-neuron co-cultures. As to conditions: 100 ng/ml LPS.
The next series concerns TNF-α secretion. In words: TNF-α Elisa of culture supernatants of LPS-treated microglia-neuron co-cultures. As to conditions: 100 ng/ml LPS, 48 hours; for effect on TNF-α secretion: PEN 500 μM, THA 200 μM. It counts as cell-based, rat. The protocol: Levels of secreted TNF-α in culture supernatants were determined by an enzyme-linked immuno-sorbent assay (Elisa) kit following manufacturer's instructions (BioSource International, Camarillo, Calif.).

The subject of series [4] is microglia-neuron co-cultures.
The next series deals with neurons. Put plainly: TUNEL staining of neurons from Aβ1-42-treated microglia-neuron co-cultures. It counts as cell-based, rat. As to conditions: 5 μM Aβ1-42 + 10 ng/ml interferon γ, 24 hours. How it is done: DNA cleavage in apoptotic nuclei was detected with In Situ Cell Death Detection Kit as described by the manufacturer (Roche Molecular Biochemicals, Indianapolis, Ind.). Briefly, cells were fixed with paraformaldehyde (4% in PBS, pH 7.4) and permeablized (0.1% Triton X-100 in 0.1% sodium citrate). After incubation for 1 hr at 37° C. in terminal deoxynucleotidyl transferase (TdT) reaction mixture, signals were visualized under a fluorescence microscope (excitation/emission wavelengths: 450-500 nm/515-565 nm). Samples were further blotted with alkaline phosphatase-conjugated anti-fluorescein antibody. Following color reaction, samples were analyzed under a light microscope.

The next series has as its system microglia cells. Put plainly: Superoxide generation by LPS-activated microglia (EPR, DMPO spin trap). As to conditions: 100 ng/ml LPS. It counts as cell-based, rat. The protocol: To monitor the generation of superoxide by activated microglia, Electron Paramagnetic Resonance (EPR) measurements were performed with 5,5-dimethyl-1-pyrroline-N-oxide (DMPO) as a superoxide spin trap. To confirm that the EPR signal is caused by superoxide, either superoxide dismutase (SOD) or DMSO, which competes with DMPO for hydroxyl radical, were added to the microglia cells together with LPS.
For EPR measurements, microglia cells (100,000) with or without LPS treatment were incubated in 200 μl culture medium containing 120 mm DMPO. After 15 minutes, the medium was removed and analyzed by EPR. EPR spectra were recorded on a Bruker ECS106 spectrometer with the following settings: receiver gain: 5×10^5; microwave power: 20 mW; microwave frequency: 9.81 GHz; modulation amplitude: 1 G; time constant: 1.3 seconds; scan time: 87 seconds; scan width: 80 G. The DMPO-OH signal generated from […] were quantified by comparison with TEMPOL standard after doubly integration of both signals. All scans shown are an accumulation of 7 scans.

As for `C[n+]1ccc(-c2c3nc(c(-c4cc[n+](C)cc4)c4ccc([n-]4)c(-c4cc[n+](C)cc4)c4nc(c(-c5cc[n+](C)cc5)c5ccc2[n-]5)C=C4)C=C3)cc1.[Cl-].[Fe+3]` [FeTMPyP, 5,10,15,20-Tetrakis(N methyl-4′-pyridyl)porphinato iron (III) chloride], the “protection of neurons against SIN-1 induced peroxynitrite toxicity” value in the series with primary cortical neurons is listed as “effectively protected”. In addition, the “effect on nitrite accumulation / NO production” value in series [1] is listed as “without decreasing NO production”. Moreover, the “effect on nitric oxide production” value in series [2] was “without compromising nitric oxide production”. Moreover, the “optimal concentration of protective action against LPS-induced microglial neurotoxicity” value in series [3] (dose-dependent) is 2 µM.
On to `Cl.O=S(=O)([O-])c1ccc(-c2c3nc(c(-c4ccc(S(=O)(=O)O)cc4)c4ccc([nH]4)c(-c4ccc(S(=O)(=O)O)cc4)c4nc(c(-c5ccc(S(=O)(=O)O)cc5)c5ccc2[nH]5)C=C4)C=C3)cc1.[Fe]` [FeTPPS, 5,10,15,20-Tetrakis(4-sulfonatophenyl)prophyrinato iron (III) chloride], for which, in series [1], the “effect on nitrite accumulation / NO production” value is “without decreasing NO production”.
As for `CNC(=N)NCCC[C@H](N)C(=O)O` [L-NMMA, N^G-Monomethyl-L-arginine], the “reduction of TNF-α secretion” value in the series with TNF-α secretion (1 mM L-NMMA) stood at 35%. In addition, in series [1], the “effect on nitrite accumulation / NO production” value is listed as “completely blocked”. Further, in series [3] (48 hours, 1 mM L-NMMA added at the same time with LPS), the viable neurons is listed as 92.4±7.4 % of control.
Regarding `CC(=O)CCCCn1c(=O)c2c(ncn2C)n(C)c1=O` [pentoxifylline], the “effect on TNF-α secretion” value with TNF-α secretion was “inhibits”. In addition, in series [1], the “effect on nitrite accumulation / NO production” value is recorded as “little effect; also recorded: did not decrease nitrite/NO generation”.
The like results for `O=C1CCC(N2C(=O)c3ccccc3C2=O)C(=O)N1` (stereo not drawn) [thalidomide] were, in that order, “inhibited” and “inhibited”.
With “Aβ1-42: amyloid β-peptide 1-42, aggregated (fibrillar), applied with 10 ng/ml interferon γ as priming factor”, in series [4], the death of neurons entry is reported as “over 80%” and the “neurotoxicity in the absence of microglia” value is listed as “did not result in neurotoxicity”. The TUNEL-labeled neurons result in the series with neurons is given as “majority”.
As for Lipopolysaccharide [LPS], the “peak of superoxide generation” value in the series with microglia cells came out at 12 h. Also, in series [1], the “beginning of nitrite generation” value worked out at 6 h and the “peak of nitrite generation” value was “approximately 14 hours”.
